Measured values taken from PMC12892976, “Alkylation-based optimization of antifungal FPPS inhibitors yields a potent, broad-spectrum lipophilic zoledronate derivative” (mBio, 2025).

Key:
C. albicans = assay: membrane fluidity, TMA-DPH anisotropy; format: cell-based, Candida albicans
Experimental: Candida albicans cells were incubated for 6 h, and C. neoformans cells were incubated for 9 h at 30°C, washed, then labeled with 2 µM TMA-DPH in PBS for 10 min. […] Mycelia were fixed, and protoplasts were prepared as described previously ([50]). Protoplasts were washed twice and labeled with 2 µM TMA-DPH in PBS for 30 min. For all labeled cultures, parallel and perpendicular fluorescence intensities were measured at 440 nm in a CLARIOstar plate reader (BMG Labtech), and anisotropy was calculated.

TNF-α = tested on: TNF-α; parameters: method as in PMID 23610597; conditions: cited from earlier work
C. neoformans [1] = assay: lipid peroxidation, TBARS assay (MDA); format: cell-based, Cryptococcus neoformans
Experimental: Cultures were incubated overnight, pelleted, and resuspended in 1 mL ice-cold PBS. Malondialdehyde (MDA) was extracted and quantified using a TBARS assay kit (Cayman Chemical #700870) according to the manufacturer’s instructions. MDA was normalized to total protein content in cell lysates.

C. neoformans [2] = assay: membrane depolarization, diS-C3(3); format: cell-based, Cryptococcus neoformans; conditions: diS-C3(3) emission maximum
Experimental: Membrane depolarization was determined using potential-sensitive fluorophore diS-C3(3) (Sigma), as described previously ([51]). Yeast cells and A. fumigatus conidia were treated as described above, then washed with citrate phosphate buffer and labeled with 20 nM diS-C3(3) at a final concentration of 10^6 cells/mL for yeasts and 10^4 conidia/mL for Aspergillus. Cells were transferred to a microplate (Invitrogen), then emission spectra between 560 and 585 nm (λexcitation = 531 nm) were obtained every 12 min for 1 h using a CLARIOstar plate reader (BMG Labtech). The emission λmax was determined at each timepoint.

## CCCCCCCCCCn1cc[n+](CC(O)(P(=O)(O)O)P(=O)(O)O)c1 [10-ZOL, Decyl-zoledronate]
C. albicans
  concentration from which anisotropy differs significantly from no-drug control: 0.5 × MIC
TNF-α
  TNF-α release: stimulate the release of TNF-α
C. neoformans [1]
  concentration at which lipid peroxidation increase became significant: 1 × MIC
C. neoformans [2]
  membrane depolarization: dose-dependent depolarization effect
